Reference: patent publication US8742106B2 (Novartis AG, priority 2009, dated 2014)

Experiments:
human orexin 2 receptors [1] = molecular target: T1, human orexin 2 receptors (Homo sapiens (Human), UniProt O43614); test: Radioligand Binding Assay I ([125I]orexin A competition, cell membranes); settings: read-out: binding I hOx2R Kd
Method: (§1) Radioligand Binding Assay I
(§2) For crude cell membrane preparations, cells (CHO, Chinese hamster ovary or HEK, human embryonic kidney) expressing human orexin 1 or human orexin 2 receptors, were washed with HEPES (10 mM, pH 7.5), scraped off the culture plates with the same buffer, and centrifuged at 4° C. for 5 min at 2500×g. The cell pellet was either stored at −80° C. or used directly. Before the experiments, cell membranes were re-suspended in binding assay buffer (10 mM HEPES, 0.5% (w/v) bovine serum albumin, pH 7.5) by homogenisation with a Polytron homogeniser at 50 Hz for 20 s. Cell membranes were also used as made available by commercial providers.
(§3) In initial saturation experiments (to calculate Bmax), cell homogenates (150 μl) were incubated with 25-300 pM of the radioligand ([^125I]orexin A, 50 μl), 8 concentrations in triplicates in the presence or absence Orexin A (1 μM, 50 μl) to define non specific binding. Bound radioactivity was measured, and data were analysed with the program XLFIT or Graphpad Prism. Protein concentration was determined according to the Bradford/BioRad Protein Assay Kit.
(§4) In competition experiments, cell homogenates (150 μl) were incubated in assay buffer (10 mM HEPES, pH 7.5, 0.5% (w/v) bovine serum albumin, 5 mM MgCl2, 1 mM CaCl2, and tween 0.05%) for 1 h at room temperature with about 100 pM of the radioligand ([^125I]orexin A, 2100 Ci/mmole, 50 μl), and with various concentrations of compounds of the invention (50 μl) in triplicates; non-specific binding was determined in the presence of Orexin A (1 μM). Reactions were terminated by vacuum filtration, 3 washes of ice cold wash buffer (Tris-HCl pH 7.4/10 mM, with NaCl 154 mM).

human orexin 1 receptors [2] = molecular target: T2, human orexin 1 receptors (Homo sapiens (Human), UniProt O43613); test: as above; settings: read-out: binding I hOx1R Kd
Method: as §1, §2, §3, §4

human orexin 1 receptors [3] = molecular target: T2, human orexin 1 receptors; test: Calcium Accumulation in Cells (FLIPR), antagonism of orexin A; format: cell-based; settings: antagonism of orexin A, Cheng-Prusoff corrected; read-out: FLIPR hOx1R Ki
human orexin 2 receptors [4] = molecular target: T1, human orexin 2 receptors; test: as above; format: cell-based; settings: antagonism of orexin A, Cheng-Prusoff corrected; read-out: FLIPR hOx2R Ki
How it was run: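 Cells expressing human orexin 2 receptor, loaded with Fluo4-AM (2 μM) plus probenecid (0.1 mM) for 1 h, then washed. Antagonism read as inhibition of the orexin A calcium fluorescence signal (FLIPR).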

human orexin 1 receptors [5] = molecular target: T2, human orexin 1 receptors; test: Radioligand Binding Assay II ([3H]-SB649868 competition, cell membranes); settings: read-out: binding II hOx1R Kd
Method: (§5) Radioligand Binding Assay II
as §2
(§6) Bound radioactivity was measured, and data were analysed with the program XLFIT or Graphpad Prism. Protein concentration was determined according to the Bradford/BioRad Protein Assay Kit.
as §4, with “1 nM” for “100 pM”, “[^3H]-SB649868, 66” for “([^125I]orexin A, 2100”, “almorexant (10” for “Orexin A (1”, “mM). Competition data is expressed in Table 2 as Kd [μM].” for “mM).”

human orexin 2 receptors [6] = molecular target: T1, human orexin 2 receptors; test: as above; settings: read-out: binding II hOx2R Kd
Method: as §5, §2, §6
as §4, with “1 nM” for “100 pM”, “[^3H]-SB649868, 66” for “([^125I]orexin A, 2100”, “almorexant (10” for “Orexin A (1”

T1 sequence (O43614 whole entry): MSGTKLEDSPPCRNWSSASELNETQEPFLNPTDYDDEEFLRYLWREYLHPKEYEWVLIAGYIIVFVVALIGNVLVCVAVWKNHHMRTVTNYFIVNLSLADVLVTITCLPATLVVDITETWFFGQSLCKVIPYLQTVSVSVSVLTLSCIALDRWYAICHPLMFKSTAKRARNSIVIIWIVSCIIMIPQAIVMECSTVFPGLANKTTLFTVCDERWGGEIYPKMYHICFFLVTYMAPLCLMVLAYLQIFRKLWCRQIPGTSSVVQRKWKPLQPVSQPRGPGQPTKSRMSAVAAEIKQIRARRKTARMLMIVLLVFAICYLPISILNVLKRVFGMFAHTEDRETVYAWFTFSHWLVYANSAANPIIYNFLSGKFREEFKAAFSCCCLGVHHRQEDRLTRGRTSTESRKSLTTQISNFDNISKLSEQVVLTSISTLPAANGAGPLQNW
T2 sequence (O43613 whole entry): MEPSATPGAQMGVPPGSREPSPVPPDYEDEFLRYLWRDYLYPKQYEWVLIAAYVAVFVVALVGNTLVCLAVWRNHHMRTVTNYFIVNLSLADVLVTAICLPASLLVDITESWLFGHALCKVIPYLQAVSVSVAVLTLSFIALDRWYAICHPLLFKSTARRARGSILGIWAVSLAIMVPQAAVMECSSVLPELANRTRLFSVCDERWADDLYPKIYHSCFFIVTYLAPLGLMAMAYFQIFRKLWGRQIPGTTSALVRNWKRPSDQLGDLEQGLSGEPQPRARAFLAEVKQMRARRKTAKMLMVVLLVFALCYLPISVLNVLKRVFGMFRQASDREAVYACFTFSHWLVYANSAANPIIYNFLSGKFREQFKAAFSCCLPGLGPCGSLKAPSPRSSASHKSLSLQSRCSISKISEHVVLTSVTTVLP

| SMILES | Kd (human orexin 2 receptors [1]) [nM] | Kd (human orexin 1 receptors [2]) [nM] | Ki (human orexin 1 receptors [3]) [nM] | Ki (human orexin 2 receptors [4]) [nM] | Kd (human orexin 1 receptors [5]) [nM] | Kd (human orexin 2 receptors [6]) [nM] |
| --- | --- | --- | --- | --- | --- | --- |
| CC(Oc1cc(C(F)(F)F)c2c(-c3ccccc3)nn(C)c2n1)C(=O)N[C@@H](C)c1ccccc1 (single isomer, unassigned) [Example 1.73] | 162 | 225 | 226 | 91 | – | – |
| C[C@H](NC(=O)COc1cc(C(F)(F)F)c2c(-c3ccccc3F)nn(C)c2n1)c1ccccc1 [Example 1.1, (S)-2-(3-(2-fluorophenyl)-1-methyl-4-(trifluoromethyl)-1H-pyrazolo[3,4-b]pyridin-6-yloxy)-N-(1-phenylethyl)acetamide] | 79 | 185 | 156 | 30 | – | – |
| Cc1cc(OCC(=O)N[C@@H](C)c2ccccc2)nc2c1c(-c1ccccc1)nn2C [Example 1.13, (S)-2-(1,4-dimethyl-3-phenyl-1H-pyrazolo[3,4-b]pyridin-6-yloxy)-N-(1-phenylethyl)acetamide] | 143 | 45 | 181 | 233 | – | – |
| Cc1cc(OCC(=O)NC(C)CCc2ccccc2)nc2c1c(-c1ccccc1)nn2C (stereo not shown) [Example 1.16, 2-(1,4-dimethyl-3-phenyl-1H-pyrazolo[3,4-b]pyridin 6-yloxy)-N-(4-phenylbutan-2-yl)acetamide] | 28 | 116 | 456 | 49 | – | – |
| C[C@H](NC(=O)COc1cc(C(F)(F)F)c2c(-c3ccccc3)nn(C)c2n1)c1ccccc1 [Example 1.17, (S)-2-(1-methyl-3-phenyl-4-(trifluoromethyl)-1H-pyrazolo[3,4-b]pyridin-6-yloxy)-N-(1-phenylethyl)acetamide] | 121 | 64 | 175 | 108 | – | – |
| CC(NC(=O)COc1cc(C(F)(F)F)c2c(-c3ccccc3)nn(C)c2n1)c1ccccc1 (stereo not shown) [Example 1.18, 2-(1-methyl-3-phenyl-4-(trifluoromethyl)-1H-pyrazolo[3,4-b]pyridin-6-yloxy)-N-(1-phenylethyl)acetamide] | 63 | 36 | 48 | 26 | – | – |
| COc1cccc(-c2nn(C)c3nc(OCC(=O)N[C@@H](C)c4ccccc4)cc(C(F)(F)F)c23)c1 [Example 1.19, (S)-2-(3-(3-methoxyphenyl)-1-methyl-4-(trifluoromethyl)-1H-pyrazolo[3,4-b]pyridin-6-yloxy)-N-(1-phenylethyl)acetamide] | 855 | 101 | 108 | 187 | – | – |
| COc1ccc2c(c1)CC[C@@H]2NC(=O)COc1cc(C(F)F)c2c(C3CC3)nn(C)c2n1 [Example 6.42, (S)-2-(3-cyclopropyl-4-(difluoromethyl)-1-methyl-1H-pyrazolo[3,4-b]pyridin-6-yloxy)-N-(5-methoxy-2,3-dihydro-1H-inden-1-yl)acetamide] | – | – | 83 | 10 | 63 | 14 |
| COc1ccc2c(c1)CC[C@@H]2NC(=O)COc1cc(C(F)(F)F)c2c(C3CC3)nn(C)c2n1 [Example 6.43, (S)-2-(3-cyclopropyl-1-methyl-4-(trifluoromethyl)-1H-pyrazolo[3,4-b]pyridin-6-yloxy)-N-(5-methoxy-2,3-dihydro-1H-inden-1-yl)acetamide] | – | – | 234 | 3 | 206 | 18 |
| Cc1ccc2c(c1)CC[C@@H]2NC(=O)COc1cc(C)c2c(C3CC3)nn(C)c2n1 [Example 6.44, (S)-2-(3-cyclopropyl-1,4-dimethyl-1H-pyrazolo[3,4-b]pyridin-6-yloxy)-N-(5-methyl-2,3-dihydro-1H-inden-1-yl)acetamide] | – | – | 223 | 14 | 67 | 28 |
| Cc1cc(OCC(=O)NC(C)c2cnc3[nH]ccc3c2)nc2c1c(C1CC1)nn2C (stereo not shown) [Example 6.57, N-(1-(1H-pyrrolo[2,3-b]pyridin-5-yl)ethyl)-2-(3-cyclopropyl-1,4-dimethyl-1H-pyrazolo[3,4-b]pyridin-6-yloxy)acetamide] | – | – | 658 | 77 | 358 | 170 |
| Cc1cc(OCC(=O)NC(C)c2ccc3c(ccn3C)c2)nc2c1c(C1CC1)nn2C (stereo not shown) [Example 6.59, 2-(3-cyclopropyl-1,4-dimethyl-1H-pyrazolo[3,4-b]pyridin-6-yloxy)-N-(1-(1-methyl-1H-indol-5-yl)ethyl)acetamide] | – | – | 127 | 63 | 70 | 162 |
| Cc1ccc2c(n1)CCC2NC(=O)COc1cc(C)c2c(C3CC3)nn(C)c2n1 (stereo not shown) [Example 6.61, 2-(3-cyclopropyl-1,4-dimethyl-1H-pyrazolo[3,4-b]pyridin-6-yloxy)-N-(2-methyl-6,7-dihydro-5H-cyclopenta[b]pyridin-5-yl)acetamide] | – | – | 227 | 93 | 157 | 159 |
| Cc1ccc2c(n1)CC[C@@H]2NC(=O)COc1cc(C)c2c(C3CC3)nn(C)c2n1 [Example 6.63, (S)-2-(3-cyclopropyl-1H-dimethyl-1H-pyrazolo[3,4-b]pyridin-6-yloxy)-N-(2-methyl-6,7-dihydro-5H-cyclopenta[b]pyridin-5-yl)acetamide] | – | – | 109 | 22 | 54 | 42 |
| CCOc1ccc2c(c1)CC[C@@H]2NC(=O)COc1cc(C)c2c(C3CC3)nn(C)c2n1 [Example 6.68, (S)-2-(3-cyclopropyl-1,4-dimethyl-1H-pyrazolo[3,4-b]pyridin-6-yloxy)-N-(5-ethoxy-2,3-dihydro-1H-inden-1-yl)acetamide] | – | – | 71 | 151 | 52 | 317 |
| Cc1ccc2c(n1)CC[C@@H]2NC(=O)COc1cc(C(F)(F)F)c2c(-c3cc(C)oc3C)nn(C)c2n1 [Example 6.79, (S)-2-(3-(2,5-dimethylfuran-3-yl)-1-methyl-4-(trifluoromethyl)-1H-pyrazolo[3,4-b]pyridin-6-yloxy)-N-(2-methyl-6,7-dihydro-5H-cyclopenta[b]pyridin-5-yl)acetamide] | – | – | 23 | 7 | 34 | 90 |
| COc1ccc([C@H](C)NC(=O)COc2cc(C(F)(F)F)c3c(-c4cc(C)oc4C)nn(C)c3n2)cc1 [Example 6.80, (S)-2-(3-(2,5-dimethylfuran-3-yl)-1-methyl-4-(trifluoromethyl)-1H-pyrazolo[3,4-b]pyridin-6-yloxy)-N-(1-(4-methoxyphenyl)ethyl)acetamide] | – | – | 6 | 7 | 12 | 32 |
| COc1cc2c(cc1OC)C(NC(=O)COc1cc(C)c3c(C4CC4)nn(C)c3n1)CC2 (stereo not shown) [Example 7.1, 2-(3-cyclopropyl-1,4-dimethyl-1H-pyrazolo[3,4-b]pyridin-6-yloxy)-N-(5,6-dimethoxy-2,3-dihydro-1H-inden-1-yl)acetamide] | – | – | 140 | 52 | 55 | 65 |
| Cc1ccc([C@H](C)NC(=O)COc2cc(C)c3c(C4CC4)nn(C)c3n2)cc1 [Example 7.11, (S)-2-(3-cyclopropyl-1,4-dimethyl-1H-pyrazolo[3,4-b]pyridin-6-yloxy)-N-(1-p-tolylethyl)acetamide] | – | – | 50 | 24 | 18 | 17 |
